Measurements: patent US8614064B2, “Methods of diagnosing atherosclerosis by measuring ApoCI” (The Johns Hopkins University, priority 2003, dated 2013)

Experiments:
[1] = system: human aortic smooth muscles cells (ASMC); experiment: Fluorescence microscope quantitative assay of apoptotic death (DAPI staining); format: cell-based; settings: C2-ceramide 10 μmol/L + ApoCI 2.5 μg/mL + GW4869 20 μmol/L, 24 h; control 2.2%
Protocol: (§1) FIGS. 1A-1C depict the effect of apolipoproteins on apoptosis in human aortic smooth muscles cells (ASMC). ASMC were grown on sterilized glass cover slips and incubated for 24 hours with media alone (control), ApoCIII (negative control, 2.5 μg/mL medium), ApoCI (2.5 μg/mL medium), ApoCI-enriched HDL (1 μg apoA-I/mL medium), or ApoCI-poor HDL (5 μg apoA-I/mL medium) for 24 hours. Cells were then fixed with ethanol-acetic acid (3:1 volume/volume) and washed 3 times with phosphate-buffered saline. The cells were then stained with DAPI reagent, mounted on a glass cover slide, and subjected to fluorescence microscopy. FIG. 1A: The nucleus of normal cells stains blue and the nucleus of apoptotic cells stains is fragmented white. FIG. 1B: 300 to 500 cells in each sample were counted and the percent of apoptotic cells was plotted. Values are mean±SD; **P<0.01, ***P<0.001. FIG. 1C: DNA ladder assay. Confluent cultures of ASMC were incubated with control medium alone, ApoCI (2.5 μg/mL medium), ApoCIII (negative control, 2.5 μg/mL medium), and TNF-α (positive control, 20 ng/mL medium). Genomic DNA was extracted and 10 μg DNA was subjected to agarose gel electrophoresis. The gels were calibrated with commercially available DNA standards. After electrophoresis, the gels were stained with ethidium bromide and then photographed.
FIGS. 2A-2B depict the effect of ApoCI, the N-SMase inhibitor, GW4869, and C-2 ceramide on apoptosis in cultured human ASMC. FIG. 2A: ASMC (1×10^3) were seeded on sterilized glass cover slips and grown in tissue culture medium with 10% fetal calf serum for 48 hours. […] Thirty minutes later, vehicle DMSO, ApoCI (2.5 μg/mL), or C2-ceramide (10 μmol/L) were added to dishes, and the incubation continued for 24 hours. The cells were then fixed with ethanol-acetic acid (3:1 v/v), stained with DAPI reagent, assessed by fluorescent microscopy, and photographed. Top to bottom: control cells; cells incubated with ApoCI± the N-SMase inhibitor, GW4869; and cells incubated with ApoCI GW4869, and C2-ceramide. FIG. 2B: The DAPI-stained ASMC from the four experimental conditions described was analyzed for quantitative apoptosis. Mean (SD) from 4 experiments. *P<0.05.
Human AoSMC that were negative for mycoplasma, hepatitis B and C and HIV-1 were purchased from Clonetics (San Diego, Calif.) and cultured in Dulbecco's minimal essential medium (Invitrogen, Carlsbad, Calif.) with 10% fetal bovine serum (Hyclone, Salt Lake City, Utah), 100-units/ml penicillin, 100-μg/ml streptomycin to confluence. The cells were incubated in serum-free medium for 30 min prior to initiating the experiments. Cells were then washed and harvested in PBS, and centrifuged at 1500 rpm for 5 min at 4° C. Protease inhibitors were then added and the pellets stored frozen at −30° C. until use.
1×10^3 cells were grown on sterilized glass cover slips in 6-well trays and treated with ApoCI (2.5 μg/ml medium), ApoCIII (2.5 μg/ml medium), tumor necrosis factor (TNF)-α (30 ng/ml), ApoCI-enriched HDL (1 μg apoA-I/ml medium) and ApoCI-poor HDL (5 μg apoA-I/ml medium). After 24 h incubation, the medium was removed, cells fixed with ethanol:acetic acid […] and stored at 4° C. Next, the fixing solution was removed and cells stored frozen at −30° C. Cover slips were mounted on the microscope slides and stained with DAPI reagent (4,6-diamino-2-phenylindol, dihydrochloride). The stained nuclei were visualized by fluorescence microscopy (Zeiss Axiovert 25). Apoptotic cells were determined after counting—500 cells in a double blind fashion.

[2] = system: N-SMase; experiment: Neutral sphingomyelinase assay in treated ASMC ([14C]sphingomyelin substrate); format: cell-based, human; settings: 5 min; ApoCI 2.5 μg/mL, TNF-α 20 ng/mL, ApoCI-enriched HDL 1 μg apoA-I/mL; control 22 nmol/h per mg protein = 100%
Protocol: FIGS. 3A-3C depict the effects of ApoCI, ApoCIII, TNF-α, ApoCI-enriched HDL, and ApoCI-poor HDL on the activity of N-SMase in ASMC. Confluent cultures of ASMC were preincubated for 30 minutes with serum-free (control) medium, then ApoCI (2.5 μg/mL medium), ApoCIII (2.5 μg/mL medium), TNF-α (20 ng/mL medium) (FIG. 3A, top), or ApoCI-enriched HDL (1 μg apoAI/mL medium), or ApoCI-poor HDL (5 μg apoA-I/mL medium) (FIG. 3B, middle) were added individually to cells. The cells were then incubated and harvested at the indicated time points, and the activity was of N-SMase determined using [^14C]sphingomyelin as substrate. The N-SMase activity in control cells was 22 nmol/h per milligram cell protein, and this value was considered as 100% activity. In a separate experiment (FIG. 3C bottom), cells (0.5×10^5) were seeded in P60 Petri dishes and grown in DMEM supplemented with 10% fetal bovine serum for 5 days. After preincubation of cells for 30 minutes in serum-free medium, increasing amounts of ApoCI were added. After incubation for 10 minutes, cells were harvested, and N-SMase activity was measured.
After stimulation with ApoCI ApoCI-enriched HDL and ApoCI-poor HDL, the cells were washed with 5 ml of PBS and harvested. The pellets were stored frozen at −70° C. and resuspended in 0.5 ml of buffer (100 mM Tris-HCl pH 7.4, 0.1% Triton X-100, 1 mM EDTA and protease inhibitors). The cell suspension was sonicated 3 times (3-s bursts) using a probe sonicator and centrifuged at 500×g at 4° C. for 5 min. The supernatant was used as the enzyme source. 100 μg of protein was assayed for neutral sphingomyelinase activity in a buffer consisting of 50 mM Tris-HCl, pH 7.4, 0.1% Triton X-100, 0.1 mg of bovine serum albumin, 5 mM MgCl2 and […] of [^14C]sphingomyelin (specific activity 50 mCi/mmol, from American Radiolabled Chemicals (St. Louis, Mo.). The samples were incubated at 37° C. for 2 h and terminated with the addition of 1 ml of 10% trichloroacetic acid. The precipitate was pelleted (1000×g at 4° C. for 30 min) and 1 ml of the supernatant was extracted with 1 ml of anhydrous diethyl ether. About 0.5 ml of the aqueous phase was removed for liquid scintillation counting (Ghosh, N., and Chatterjee, S. (1998) J. Biol. Chem. 264, 12554-12561).

[3] = system: human aortic smooth muscles cells (ASMC); experiment: DNA laddering assay; format: cell-based; settings: ApoCI or ApoCIII 2.5 μg/mL, TNF-α positive control
Protocol: as §1
Cells were treated with either TNF-α (30 ng/ml), ApoCI or ApoCIII (2.5 μg/ml) for 6 h. The cells were then washed twice with minimal essential medium and harvested with buffer (10 mM HEPES, pH 7.4. 5 mM EDTA, 0.25 mM EGTA, 50 mM NaF, 5 mM β-mercaptoethanol, 0.35 M sucrose, 0.1% Nonidet and protease inhibitors, 1 mM phenylmethylsulfonyl fluoride, 2 μg/ml leupeptin and 5 μg/ml pepstatin), and pelleted. Genomic DNA was prepared employing standard protocol. Genomic DNA was subjected to electrophoresis, stained with ethidium bromide and the gel was photographed. The gel was calibrated using DNA fragments of known molecular weight.

increase in the activity of N-SMase at 5 minutes [2] [fold] | Compound | percent apoptotic cells with C2-ceramide added to ApoCI and GW4869 [1] [%] | DNA laddering on agarose gel (FIG. 1C) [3]
 | CCCCCCCCCCCCC/C=C/[C@@H](O)[C@H](CO)NC(C)=O [C2-ceramide] | ~12.5 | 
~2 | tumor necrosis factor α [TNF-α] |  | exhibited DNA laddering
